Patent publication US11007182B2, “Use of atpenin to activate innate immunity” (Health Research, Inc., priority 2015, dated 2021)

Assays:
Assay type in all cases: cell-based, human
[1] = test system: monocyte-enriched PBMCs; test: Oxygen consumption assay (oxygen-quenched fluorescent dye) in monocyte-enriched PBMCs; settings: averages from 3 donors' monocyte-enriched PBMCs
Description: (§1) FIG. 6. Inhibition of complex II reduces oxygen consumption and antagonizes HIF-1. […] DMSO indicates the untreated vehicle control. […] The oxygen levels are measured by a fluorescent dye, which is quenched by oxygen (i.e., more fluorescence, less oxygen). Results are averages from 3 donors' monocyte-enriched PBMCs with SEMs shown in dashed lines.
(§2) We used primary human monocytes and 293T HEK cells to investigate their response to hypoxia and to cell-permeable complex II inhibitors (atpenin A5, TTFA) using cell culture methods, high throughout RNA sequencing, qPCR, immunoblotting and oxygen consumption assays.

[2] = test system: APOBEC3A-mediated RNA editing; test: SDHB c.136C>U site-specific RNA editing assay (RT-PCR) in monocyte-enriched PBMCs; settings: for effect on hypoxia-induced RNA editing: hypoxia 1% O2; for effect on hypoxia-induced RNA editing / induction of APOBEC3A-mediated RNA editing in normoxia: atpenin A5 1-3 μM, DMOG 1 mM, myxothiazol 1 μM; for induction of APOBEC3A-mediated RNA editing in normoxia: TTFA 1 mM
Description: Peripheral blood mononuclear cells of anonymous platelet donors were isolated from peripheral blood in Trima Accel™ leukoreduction system chambers (Terumo BCT®, Lakewood, Colo.) after thrombocytapheresis, in accordance with a protocol approved by the institutional review board of Roswell Park Cancer Institute. A density gradient centrifugation method using polysucrose-containing Lymphocyte Separation Medium (Mediatech®, Manassas, Va.) was used for PBMC isolation. MEPs were prepared from PBMCs using the well-established cold aggregation method with slight modification (Mentzer et al 1986). Briefly, PBMCs were subjected to gentle rocking at 4° C. for an hour and aggregated cells that sedimented through fetal bovine serum (FBS; VWR®, Radnor, Pa.) were collected as MEPs (monocyte-enriched PBMCs) after 0.5-3 hours for high monocyte enrichment (˜70% monocytes as assessed by immunofluorocytometry for CD14), or after 8-16 hours for mild enrichment (˜20%-40% monocytes). MEPs were cultured at a density of at least 20 million per ml in 1 or 2 ml per well of 6- or 12-well standard tissue culture plates under 5% CO2 in RPMI-1640 medium (Mediatech®) with 10% FBS, and 100 U per ml penicillin and 100 μg per ml streptomycin (Mediatech®). CD14 positive monocytes were separated in certain experiments from MEPs that were initially cultured for 1 or 2 days using magnetic beads and donut-shaped magnet (EasySep cell isolation kit purchased from STEMCELL Technologies).
For hypoxia, cells were cultured under 1% O2, 5% CO2 and 94% N2 in an XVIVO SYSTEM® (a cell culture system) (Biospherix®, Lacona, N.Y.). ‘Universal’ type I IFN, a hybrid of N-terminal IFNα-2 and C-terminal IFNα-1, produced in E. coli were obtained from PBL Assay Science® (Piscataway, N.J.), and respectively used at 300 U per ml. Unless noted otherwise, hypoxia and/or interferon treatments were for 24 hours. Differential viability of MEPs after 1-day culture in normoxia versus hypoxia was not observed as evaluated by Trypan blue stain.
SDHB c.136C>U site-specific RNA editing, catalyzed by APOBEC3A cytidine deaminase, was quantified by RT-PCR as described (Baysal et al 2013). Total RNA, genomic DNA and plasmid DNA were isolated using material and methods provided with TRIzol™, DNA Wizard Genomic DNA Purification Kit (Promega®), and Plasmid Kit (Qiagen®, Germantown, Md.), respectively. RNA/DNA was quantified by spectrophotometry on a Nanodrop™ 2000 instrument (Thermo Fisher®). Proteins were quantified using Bio-Rad® Dc™ assay with bovine serum albumin standards. Statistical tests were two-tailed and were performed using R 3.0, Excel™ 2010 (Microsoft®, Redmond, Wash.), or Prism™ 6.0 (GraphPad®, San Diego, Calif.) software.
Atpenin A5 is purchased from Cayman Chemical (CAS 119509-24-9), dissolved in DMSO and used in final concentrations of 1-3 μM in culture. DMOG (dimethyloxalylglycine; CAS 89464-63-1) and myxothiazol (CAS 76706-55-3) are purchased from Sigma-Aldrich, dissolved in DMSO and used in final concentrations of 1 mM and 1 μM, respectively.

[3] = test system: HIF1α; test: HIF1α stabilization (immunoblotting) in CD14 negative lymphocytes and CD14 positive monocytes; settings: FIG. 5
Description: FIG. 5. HIF1α is stabilized in CD14 negative lymphocytes, but not in CD14 positive monocytes in hypoxia (H, 1% O2, day 1). […] CD14± cells are unsorted PBMCs.
as §2

[4] = test system: hypoxia-related gene expression in monocytes; test: RNA seq and RT-qPCR of hypoxic gene expression in monocytes
Description: FIG. 4. AtA5 treatment in normoxia induces hypoxic gene expression in monocytes.
as §2
On the contrary, AtA5 reduces cellular oxygen consumption in peripheral blood mononuclear cells and inhibits HIF-la stabilization in mildly hypoxic conditions in 293T cells (FIG. 6).

[5] = test system: HIF1α; test: HIF1α stabilization (immunoblotting) in 293T cells; settings: for HIF1α stabilization in mild hypoxia: 6% O2
Description: as §1, §2

Compound | oxygen consumption relative to control cells [1] | effect on hypoxia-induced RNA editing ([2]; MEPs) | induction of APOBEC3A-mediated RNA editing in normoxia ([2]; normoxia, MEPs) | HIF1α stabilization in normoxia in lymphocytes and monocytes [3] | HIF1α stabilization in mild hypoxia ([5]; 293T cells, day 1) | further results
antimycin A | completely inhibit oxygen consumption | – | – | – | – | –
COC(=O)CNC(=O)C(=O)OC [DMOG, dimethyloxalylglycine] | – | inhibited hypoxia-induced RNA editing | did not induce RNA editing in normoxia | stabilizes HIF1α in both lymphocytes and monocytes | – | –
COc1[nH]c(=O)c(C(=O)[C@@H](C)C[C@H](C)[C@@H](Cl)CCl)c(O)c1OC [atpenin A5] | reduces oxygen consumption relative to control cells (blue), but does not abolish it | without inhibiting the hypoxia-induced RNA editing | induced APOBEC3A-mediated RNA editing in normoxia | does not stabilize HIF1α in normoxia in lymphocytes or monocytes | inhibits HIF1α stabilization in mild hypoxia | cell population in which induced RNA editing occurs ([2]; CD14 positive and CD14 negative cells separated from MEPs after culture): induced RNA editing occurs in CD14+ monocytes; RNA editing levels induced in normoxia relative to hypoxic stimulation ([2]; normoxia versus hypoxia, FIG. 1): comparable to levels observed upon hypoxic stimulation; effect on RNA editing in combination with interferon ([2]; normoxia, MEPs, type I IFN 300 U per ml): synergistic effect with interferon-induced RNA editing levels; monocyte-enriched PBMCs from donors (biological replicates) with normoxic induction of RNA editing ([2]; normoxia, p=0.00013, two-sided Wilcoxon pairwise test): 19 of 19; effect on A3A-mediated RNA editing or transcript induction in hypoxic monocytes ([4]; hypoxic monocytes): does not inhibit A3A-mediated RNA editing or transcript induction in hypoxic monocytes; expression of hypoxia-related and pro-angiogenic genes (RT-qPCR) ([4]; normoxic treatment of monocytes): causes upregulation of many hypoxia-related and pro-angiogenic genes including VEGFA, CXCL8 (IL8) and CXCR4; transcriptome-scale changes (RNA seq and RNA editing analyses) ([4]; normoxic treatment of monocytes, FIG. 4): closely mimics the hypoxia effects in inducing transcriptome-scale changes; HIF-1α stabilization in normoxia in 293T cells ([5]; normoxic treatment, 293T embryonic kidney cells, FIG. 6): does not stabilize HIF-la
CO/C(=C/C(N)=O)[C@H](C)[C@H](/C=C/c1csc(-c2csc([C@@H](C)/C=C/C=C/C(C)C)n2)n1)OC [myxothiazol] | completely inhibit oxygen consumption | inhibited hypoxia-induced RNA editing | did not induce RNA editing in normoxia | – | inhibits it both in mild and severe hypoxia | HIF1α stabilization in severe hypoxia ([5]; 1% O2, 293T cells, day 1): inhibits it both in mild and severe hypoxia
O=C(CC(=O)C(F)(F)F)c1cccs1 [TTFA, thenoyltrifluoroacetone] | – | – | induces RNA editing in normoxia | – | – | –
